In assay [1] the test system is Oseltamivir resistant strains. The assay can be described thus: microbe, parasite or virus in culture. The format is cell-based, influenza virus.
In the next assay the test system is influenza virus. The class given is cell-based.

The values that follow come from patent US11007274B2, “Compounds for medicinal applications” (Ausvir Therapeutics Pty LTD, priority 2015, dated 2021).

Structures are written as SMILES. Like-named read-outs stand apart in the source and are kept apart here. Marks after values point to notes of the source that are not given here. Where only a bound is given, the exact number is not on record here.

Turning to `CC(=O)N[C@H]1[C@H]([C@H](OC(=O)NCCCCCCCCCNC(=O)c2cc(C(=O)NCCCCCCCCCNC(=O)O[C@@H]([C@@H]3OC(C(=O)O)=C[C@H](NC(=N)N)[C@H]3NC(C)=O)[C@H](O)CO)c(C(=O)N[C@H](CC(=O)NCS(=O)(=O)O)C(=O)NCS(=O)(=O)O)cc2C(=O)N[C@H](CC(=O)NCS(=O)(=O)O)C(=O)NCS(=O)(=O)O)[C@H](O)CO)OC(C(=O)O)=C[C@@H]1NC(=N)N` [MD185, PK2PYR(Zn)2[(D-Asp)(NHCH2SO3)2]2], the IC50 (in general, the concentration that inhibits the measured activity by half) in assay [1] (Influenza A virus, H3N2, read-out: IC50, inhibition of plaque number) is 1 ng/mL; in assay [1] (unidentified influenza virus, pH 1, read-out: IC50, inhibition of plaque number), 1 to 10 ng/mL; in assay [1] (unidentified influenza virus, read-out: IC50, inhibition of plaque number) it was 1 to 10 ng/mL. The “IC50, inhibition of plaque number” value in assay [1] (pH 1) is recorded as 1-100^b ng/ml. The EC50 (as a rule, the concentration at which the effect is half-maximal) with influenza virus is 0.18/0.097 ng/ml; in the assay with influenza virus (read-out: EC50), 0.097 nM.
For `CCOC(=O)C1=C[C@@H](OC(CC)CC)[C@H](NC(C)=O)[C@@H](N)C1` [Oseltamivir, reference compound], the IC50 is not below 1000 nM in assay [1] (Influenza A virus, H3N2; read-out: IC50, inhibition of plaque number); not below 10000 nM in assay [1] (pH 1; read-out: IC50, inhibition of plaque number); not below 10000 nM in assay [1] (read-out: IC50, inhibition of plaque number); 100 nM in assay [1] (unidentified influenza virus, pH 1; read-out: IC50, inhibition of plaque number); 1000 nM in assay [1] (unidentified influenza virus; read-out: IC50, inhibition of plaque number).
